From patent publication US20250345492A1, “AN ANTIBACTERIAL POLYPEPTIDE COMPOUND, A MEDICAL DEVICE, HYDROGEL AND USE THEREOF” (priority 2020, published 2025)
Ends that are not written are not given here.

Key:
[1] = system: E. coli ML-35 (ATCC 43837); experiment: Inner membrane permeability, ONPG / β-galactosidase release; type: cell-based; details: 1×MIC to 8×MIC, 90 min
Procedure: The effect on the integrity of bacterial […] was determined by determining the release amount of β-galactosidase from E. coli ML-35 (ATCC 43837) with ONPG (o-nitrobenzene-β-D-galactoside), thereby detecting the effect of the compounds on the permeability of E. coli IM.
Taking compounds 2, 8, 9, 13 and 15 of the present invention as examples, the IM permeability of E. coli with the presence of the antibacterial polypeptide compounds was analyzed. E. coli ML-35 cells were washed twice with PBS solution and resuspended in 0.9% sodium chloride solution. […] The cells were detected at 420 nm once every 5 mins using a multifunctional ELISA reader within a 90-min period of time.

E. coli (ATCC 25922) = experiment: Mouse septic peritonitis model, survival; type: in vivo, Kunming mice; details: 20 mg/kg intraperitoneally one hour after E. coli inoculation, 7 days of observation
Procedure: The determination of the in vivo antibacterial activity of the antibacterial polypeptide compounds is to reflect the antibacterial activity in vivo by detecting the survival rate of mice infected with bacteria or fungi.
Taking compounds 2, 8, 9, 13 and 15 of the present invention as examples, the in vivo antibacterial effects of the antibacterial polypeptide compounds were analyzed. The mice used in this test were Kunming mice, which were placed in constant-temperature environment (22±1° C.). Simply, 36 Kunming mice (18-22 g of body weight) were randomly divided into 6 groups and intraperitoneally injected with 0.2 ml of 3×10^8 CFU/mL E. coli (ATCC 25922) on Day 1 to establish mouse septic peritonitis model. The mice were administered intraperitoneally one hour after inoculation with the bacteria, and then the compounds 2, 8, 9, 13 and 15 were injected intraperitoneally at a dose of 20 mg/kg of body weight. Polymyxin B (20 mg/kg) was selected as a positive reference control, and a negative control group received intraperitoneal injection of sterile saline. After 7 days of observation, the survival rates of mice in administration groups and control groups were calculated to create survival curves.

[2] = system: human embryonic renal epithelial cell HEK293; experiment: Cytotoxicity, MTT colorimetry; type: cell-based
Procedure: (§1) For cytotoxicity determination, the MTT colorimetry was used to evaluate the effects of the compounds on the proliferation of human cervical cancer cell Hela, human embryonic renal epithelial cell HEK293 and mouse mononuclear macrophage RAW264.7.
(§2) Taking compounds 2, 8, 9, 13 and 15 of the present invention as examples, the cytotoxicity of the antibacterial polypeptide compounds was analyzed. Three cell lines were employed for the present invention, namely human cervical cancer cell Hela, human embryonic renal epithelial cell HEK293 and mouse mononuclear macrophage RAW264.7. Hela cells were cultured in RPMI 1640 medium with 10% newborn calf serum, HEK293 cells and RAW264.7 cells were cultured in DMEM medium with 10% fetal bovine serum. Simply, cells (1×10^4 cells/well) were inoculated to a 96-well plate and incubated in an incubator set to 5% CO2 at 37° C. After 24 hours, compounds of different concentrations were added and incubated in the 5% CO2 incubator. After 24 hours, 20 μL of MTT solution with a concentration of 5 mg/mL was added to each well and incubated for 4 hours. After that, the medium was removed with a pipet, and 150 μL of DMSO added to dissolve the purple-blue formazan crystals. The solution was shaken in an oscillator for 5 mins before detecting the absorbance value at 570 nm using the ELISA reader, and then the survival rate was calculated with the formula: (OD dosing group/OD control group)×100% (n=3).

[3] = system: human cervical cancer cell Hela; experiment: Cytotoxicity, MTT colorimetry; type: cell-based
Procedure: as §1, §2

[4] = system: mouse mononuclear macrophage RAW264.7; experiment: Cytotoxicity, MTT colorimetry; type: cell-based
Procedure: as §1, §2

Pro-Phe-Lys-Leu-Ser-Leu-His-Leu-NH2 (PFKLSLHL-NH2) [Compound J-1, reference compound]
IM permeability of E. coli [1]: destroying the integrity of the E. coli IM in a dose-dependent manner
survival rate of mice (E. coli (ATCC 25922)): about 50%

Pro-Trp-Orn-Leu-Orn-Leu-His-Leu-NH2 (PWXLXLHL; HELM PEPTIDE1{P.W.[Orn].L.[Orn].L.H.L.[am]}$$$$V2.0; N-terminus assumed; SMILES CC(C)C[C@H](NC(=O)[C@H](Cc1c[nH]cn1)NC(=O)[C@H](CC(C)C)NC(=O)[C@H](CCCN)NC(=O)[C@H](CC(C)C)NC(=O)[C@H](CCCN)NC(=O)[C@H](Cc1c[nH]c2ccccc12)NC(=O)[C@@H]1CCCN1)C(N)=O) [Compound 9]
effect on proliferation (inhibitory activity) [2]: no inhibitory activity
effect on proliferation (inhibitory activity) [3]: no inhibitory activity
effect on proliferation (inhibitory activity) [4]: no inhibitory activity
IM permeability of E. coli [1]: destroying the integrity of the E. coli IM in a dose-dependent manner
